Test: xn = mol fraction of the nth substance listed
Details: 100 kPa, Liquid; for mass density: Vibrating tube method; for viscosity: Capillary tube (Ostwald / Ubbelohde) method

CC1COC(=O)O1 (configuration not stated) [4-methyl-1,3-dioxolan-2-one] + CN1CCCC1=O
Details	mass density [kg/m3]	viscosity [mPa·s]
308.15 K, x2 = 0.5164	1093.99	–
308.15 K, x2 = 0.6011	1080.16	–
308.15 K, x2 = 0.6989	1064.71	–
308.15 K, x2 = 0.7989	1049.38	–
308.15 K, x2 = 0.9003	1034.2	–
308.15 K, x2 = 0.9506	1026.76	–
313.15 K, x2 = 0	1183.11	1.91
313.15 K, x2 = 0.0523	1172.69	–
313.15 K, x2 = 0.1021	1162.99	–
313.15 K, x2 = 0.114	–	1.828
313.15 K, x2 = 0.1995	1144.5	–
313.15 K, x2 = 0.2013	–	1.765
313.15 K, x2 = 0.2987	1126.42	–
313.15 K, x2 = 0.3347	–	1.673
313.15 K, x2 = 0.389	–	1.636
313.15 K, x2 = 0.4003	1108.58	–
313.15 K, x2 = 0.5	–	1.568
313.15 K, x2 = 0.5164	1088.95	–
313.15 K, x2 = 0.597	–	1.516
313.15 K, x2 = 0.6011	1075.18	–
313.15 K, x2 = 0.6989	1059.78	–
313.15 K, x2 = 0.709	–	1.461
313.15 K, x2 = 0.7891	–	1.426
313.15 K, x2 = 0.7989	1044.52	–
313.15 K, x2 = 0.8985	–	1.379
313.15 K, x2 = 0.9003	1029.43	–
313.15 K, x2 = 0.9506	1022.03	–
318.15 K, x2 = 0	1177.55	1.75
318.15 K, x2 = 0.0523	1167.21	–
318.15 K, x2 = 0.1021	1157.58	–
318.15 K, x2 = 0.114	–	1.682
318.15 K, x2 = 0.1995	1139.21	–
318.15 K, x2 = 0.2013	–	1.627
318.15 K, x2 = 0.2987	1121.25	–
318.15 K, x2 = 0.3347	–	1.545
318.15 K, x2 = 0.389	–	1.513
318.15 K, x2 = 0.4003	1103.52	–
318.15 K, x2 = 0.5	–	1.453
318.15 K, x2 = 0.5164	1084	–
318.15 K, x2 = 0.597	–	1.407
318.15 K, x2 = 0.6011	1070.31	–
318.15 K, x2 = 0.6989	1054.99	–
318.15 K, x2 = 0.709	–	1.359
318.15 K, x2 = 0.7891	–	1.328
318.15 K, x2 = 0.7989	1039.81	–
318.15 K, x2 = 0.8985	–	1.286
318.15 K, x2 = 0.9003	1024.81	–
318.15 K, x2 = 0.9506	1017.45	–
323.15 K, x2 = 0	1171.96	1.62
323.15 K, x2 = 0.0523	1161.72	–
323.15 K, x2 = 0.1021	1152.17	–
323.15 K, x2 = 0.114	–	1.56
323.15 K, x2 = 0.1995	1133.96	–
323.15 K, x2 = 0.2013	–	1.513
323.15 K, x2 = 0.2987	1116.14	–
323.15 K, x2 = 0.3347	–	1.443
323.15 K, x2 = 0.389	–	1.414
323.15 K, x2 = 0.4003	1098.55	–
323.15 K, x2 = 0.5	–	1.361
323.15 K, x2 = 0.5164	1079.17	–
323.15 K, x2 = 0.597	–	1.32
323.15 K, x2 = 0.6011	1065.56	–
323.15 K, x2 = 0.6989	1050.38	–
323.15 K, x2 = 0.709	–	1.278
323.15 K, x2 = 0.7891	–	1.25
323.15 K, x2 = 0.7989	1035.3	–
323.15 K, x2 = 0.8985	–	1.213
323.15 K, x2 = 0.9003	1020.41	–
323.15 K, x2 = 0.9506	1013.09	–

— the NIST ThermoML archive (doi:10.1016/j.jct.2015.08.013)
